Data from patent US7300946B2, “N-(substituted arylmethyl)-4-(disubstituted methyl) piperidines and pyridines” (Bayer CropScience AG, priority 2002, dated 2007).

System: tobacco budworm (Heliothis virescens [Fabricius])
Test: surface-treated diet test against the tobacco budworm
Format: in vivo
Settings: tobacco budworm second instar larvae, 0.25 millimoles of candidate insecticide on the surface of the diet, five-day exposure; for Percent Mortality: compared to total number of insects infested; for Percent Growth Inhibition: inhibition of insect weight relative to untreated controls
In short: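 Wheat germ artificial diet surface-treated with 40 µL of 50 mM DMSO stock diluted 1:7 in 1:1 water/acetone (0.25 millimolar on diet), or sub-multiples for rate tests. One second-instar larva per well, 25° C, 60% RH, 5 days; percent weight inhibition vs DMSO controls and percent mortality.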

SMILES | Percent Mortality (surface-treated diet) [%] | Percent Growth Inhibition (surface-treated diet) [%] | Percent Mortality [%] | Percent Growth Inhibition [%]
O=C(Nc1cc(F)cc(F)c1)OC(c1ccc(OC(F)(F)F)cc1)C1CCN(Cc2ccc(I)cc2)CC1 (stereo not drawn) [Compound 462] | 83 | 100 | – | –
CCn1nnc(-c2ccc(CN3CCC(C(OC(=O)Nc4ccc(Cl)cc4)c4cccc(F)c4)CC3)cc2)n1 (stereo not drawn) [Compound 582] | 100 | 100 | – | –
O=C(Nc1cccc(F)c1)OC(c1ccc(OC(F)(F)F)cc1)C1CCN(Cc2ccc(Oc3ncccn3)cc2)CC1 (stereo not drawn) [Compound 734] | – | – | 100 | 100
N#Cc1ccc(Oc2ccc(CN3CCC(C(OC(=O)Nc4cc(F)cc(F)c4)c4ccc(OC(F)(F)F)cc4)CC3)cc2)nc1 (stereo not drawn) [Compound 711] | – | – | 100 | 100
CCn1nnc(-c2ccc(CN3CCC(C(OC(=O)Nc4ccc(C)cc4)c4ccc(OC(F)(F)F)cc4)CC3)cc2)n1 (stereo not drawn) [Compound 285] | 100 | 100 | – | –
Cn1nnc(-c2ccc(CN3CCC(C(NCc4cccc(Cl)c4)c4ccc(OC(F)(F)F)cc4)CC3)cc2)n1 (stereo not drawn) [Compound 310] | 100 | 100 | – | –
CC(C)OC(=O)Nc1ccc(CN2CCC(C(OC(=O)Nc3cc(F)cc(F)c3)c3ccc(F)cc3)CC2)cc1 (stereo not drawn) [Compound 505] | 100 | 100 | – | –
CCn1nnc(-c2ccc(CN3CCC(=C(c4ccccc4)c4ccc(C(F)(F)F)cc4)CC3)cc2)n1 [Compound 80] | 33 | 100 | – | –
CCn1nnc(-c2ccc(CN3CCC(C(OC(=O)Nc4ccc(C(F)(F)F)cc4)c4ccc(Cl)c(Cl)c4)CC3)cc2)n1 (stereo not drawn) [Compound 576] | 100 | 100 | – | –
FC(F)(F)c1ccc(C(=C2CCN(Cc3ccc(Oc4ncccn4)cc3)CC2)c2cccc(Cl)c2)cc1 [Compound 815] | – | – | 100 | 100
CCCOC(=O)Nc1ccc(CN2CCC(=C(c3ccc(C(F)(F)F)cc3)c3ccc(C(F)(F)F)cc3)CC2)cc1 [Compound 57] | 100 | 100 | – | –
O=C(Nc1cc(F)cc(F)c1)OC(c1ccc(C(F)(F)F)cc1)C1CCN(Cc2ccc(Oc3ccc(Cl)cn3)cc2)CC1 (stereo not drawn) [Compound 684] | 100 | 100 | – | –
CC(C)OC(=O)Nc1ccc(CN2CCC(C(OC(=O)Nc3ccc(Cl)cc3)c3ccc(F)cc3)CC2)cc1 (stereo not drawn) [Compound 503] | 100 | 100 | – | –
O=C(Nc1ccc(Cl)cc1)OC(c1cccc(C(F)(F)F)c1)C1CCN(Cc2ccc(Oc3ccccn3)cc2)CC1 (stereo not drawn) [Compound 652] | 100 | 100 | – | –
Cn1nnc(-c2ccc(CN3CCC(C(OC(=O)Nc4cccc(Cl)c4)c4ccc(OC(F)(F)F)cc4)CC3)cc2)n1 (stereo not drawn) [Compound 263] | 100 | 100 | – | –
O=C(Nc1cc(F)cc(F)c1)OC(c1ccc(C(F)(F)F)cc1)C1CC[N+]([O-])(Cc2ccc(Oc3cccc(Cl)n3)cc2)CC1 (stereo not drawn) [Compound 757] | – | – | 100 | 100
Cn1nnc(-c2ccc(CN3CCC(C(NCc4ccc(I)cc4)c4ccc(OC(F)(F)F)cc4)CC3)cc2)n1 (stereo not drawn) [Compound 316] | 50 | 100 | – | –
FC(F)(F)c1ccc(C(=C2CCN(Cc3ccc(-c4ccccn4)cc3)CC2)c2ccc(C(F)(F)F)cc2)cc1 [Compound 807] | – | – | 100 | 100
CCON=Cc1ccc(CN2CCC(C(OC(=O)Nc3cc(Cl)ccc3Cl)c3ccc(C(F)(F)F)cc3)CC2)cc1 (stereo not drawn) [Compound 191] | 100 | 100 | – | –
Cn1nnc(-c2ccc(CN3CCC(C(NC(=O)Nc4ccc(Br)cc4)c4ccc(OC(F)(F)F)cc4)CC3)cc2)n1 (stereo not drawn) [Compound 337] | 100 | 100 | – | –
CCn1nnc(-c2ccc(CN3CCC(C(OC(=O)Nc4ccc(Cl)c(Cl)c4)c4cccc(F)c4)CC3)cc2)n1 (stereo not drawn) [Compound 583] | 100 | 100 | – | –
O=C(Nc1cc(F)cc(F)c1)OC(c1ccc(C(F)(F)F)cc1)C1CCN(Cc2ccc(Oc3cccc[n+]3[O-])cc2)CC1 (stereo not drawn) [Compound 682] | 100 | 100 | – | –
CCCOc1ccc(CN2CCC(C(OC(=O)Nc3ccc(F)cc3)c3ccc(Cl)c(Cl)c3)CC2)cc1 (stereo not drawn) [Compound 481] | 100 | 100 | – | –
CCn1nnc(-c2ccc(CN3CCC(C(OC(=O)Nc4ccc(C(C)C)cc4)c4ccc(OC(F)(F)F)cc4)CC3)cc2)n1 (stereo not drawn) [Compound 286] | 50 | 94 | – | –

SMILES | Percent Mortality (surface-treated diet) [%] | Percent Growth Inhibition (surface-treated diet) [%] | Percent Mortality [%] | Percent Growth Inhibition [%]
O=C(Nc1ccc(Cl)c(Cl)c1)OC(c1ccc(C(F)(F)F)cc1)C1CCN(Cc2ccc(Oc3ccccn3)cc2)CC1 (stereo not drawn) [Compound 230] | 100 | 100 | – | –
CC(C)OC(=O)Nc1ccc(COC(c2ccc(C(F)(F)F)cc2)C2CCN(Cc3ccc(NC(=O)OC(C)C)cc3)CC2)cc1 (stereo not drawn) [Compound 457] | 0 | 16 | – | –
CC(C)(C)C(=O)Nc1ccc(CN2CCC(C(OC(=O)Nc3cc(F)cc(F)c3)c3ccc(C(F)(F)F)cc3)CC2)cc1 (stereo not drawn) [Compound 497] | 17 | 100 | – | –
O=C(Nc1ccc(-c2ccccc2)cc1)OC(c1ccc(C(F)(F)F)cc1)C1CCN(Cc2ccc(Oc3ccccn3)cc2)CC1 (stereo not drawn) [Compound 250] | 100 | 100 | – | –
CC(C)(C)NC(=O)OC(c1ccc(C(F)(F)F)cc1)C1CCN(Cc2ccc(Oc3ccccn3)cc2)CC1 (stereo not drawn) [Compound 779] | – | – | 100 | 100
CCON=Cc1ccc(C[N+]2([O-])CCC(C(OC(=O)Nc3cccc(F)c3)c3ccc(C(F)(F)F)cc3)CC2)cc1 (stereo not drawn) [Compound 742] | – | – | 100 | 100
[O-][N+]1(Cc2ccc(Oc3ncccn3)cc2)CCC(=C(c2ccc(C(F)(F)F)cc2)c2cc(Cl)cc(Cl)c2)CC1 (stereo not drawn) [Compound 856] | – | – | 50 | 100
CCn1nnc(-c2ccc(CN3CCC(C(OC(=O)Nc4ccc(Cl)cc4)c4ccccc4)CC3)cc2)n1 (stereo not drawn) [Compound 564] | 100 | 100 | – | –
CC(C)OC(=O)Nc1ccc(CN2CCC(C(OC(=O)Nc3cc(F)cc(F)c3)c3ccc(C(F)(F)F)cc3)CC2)cc1 (stereo not drawn) [Compound 512] | 100 | 100 | – | –
Cn1nnc(-c2ccc(CN3CCC(C(NC(=O)c4ccc(Cl)cc4)c4ccc(OC(F)(F)F)cc4)CC3)cc2)n1 (stereo not drawn) [Compound 324] | 83 | 99 | – | –
CCn1nnc(-c2ccc(CN3CCC(C(OC(=O)Nc4ccc(I)cc4)c4ccc(OC(F)(F)F)cc4)CC3)cc2)n1 (stereo not drawn) [Compound 271] | 100 | 100 | – | –
O=C(Nc1cccc(F)c1)OC(c1ccc(OC(F)(F)F)cc1)C1CCN(Cc2ccc(Oc3ccccn3)cc2)CC1 (stereo not drawn) [Compound 235] | 100 | 100 | – | –
CC(=O)Nc1ccc(CN2CCC(=C(c3ccc(C(F)(F)F)cc3)c3ccc(C(F)(F)F)cc3)CC2)cc1 [Compound 52] | 33 | 100 | – | –
CNC(=O)OC(c1ccc(C(F)(F)F)cc1)C1CCN(Cc2ccc(Oc3ccccn3)cc2)CC1 (stereo not drawn) [Compound 771] | – | – | 17 | 72
CCON=Cc1ccc(CN2CCC(C(OC(=O)N(C)C)c3ccc(C(F)(F)F)cc3)CC2)cc1 (stereo not drawn) [Compound 773] | – | – | 100 | 100
CCCOc1ccc(CN2CCC(C(OC(=O)Nc3cccc(C(F)(F)F)c3)c3ccc(F)cc3)CC2)cc1 (stereo not drawn) [Compound 477] | 100 | 100 | – | –
O=C(Nc1ccc(Cl)cc1)OC(c1ccc(Cl)cc1)C1CCN(Cc2ccc(Oc3ncccn3)cc2)CC1 (stereo not drawn) [Compound 712] | – | – | 100 | 100
CC=CCOC(=O)Nc1ccc(CN2CCC(=C(c3ccc(Cl)cc3)c3ccc(Cl)cc3)CC2)cc1 [Compound 798] | – | – | 0 | 59
COc1ccc(CNC(c2ccc(OC(F)(F)F)cc2)C2CCN(Cc3ccc(-c4nnn(C)n4)cc3)CC2)cc1 (stereo not drawn) [Compound 318] | 100 | 100 | – | –
Cn1nnc(-c2ccc(CN3CCC(C(NCc4cccc(F)c4)c4ccc(OC(F)(F)F)cc4)CC3)cc2)n1 (stereo not drawn) [Compound 314] | 100 | 100 | – | –
CCON=Cc1ccc(C[N+]2([O-])CCC(C(OC(=O)Nc3cc(F)cc(F)c3)c3ccc(C(F)(F)F)cc3)CC2)cc1 (stereo not drawn) [Compound 743] | – | – | 100 | 100
O=C(Nc1cc(F)cc(F)c1)OC(c1ccc(F)cc1)C1CC[N+]([O-])(Cc2ccc(Oc3ccccn3)cc2)CC1 (stereo not drawn) [Compound 752] | – | – | 100 | 100
CCON=Cc1ccc(CN2CCC(C(OC(=O)Nc3cccc(F)c3)c3ccc(Cl)cc3Cl)CC2)cc1 (stereo not drawn) [Compound 530] | 100 | 100 | – | –
CCON=Cc1ccc(CN2CCC(C(OC(=O)Nc3cc(F)cc(F)c3)c3ccc(Cl)cc3Cl)CC2)cc1 (stereo not drawn) [Compound 531] | 100 | 100 | – | –
